{"source": "patent US20250353835A1", "about": "“N-TETRAZOLYL ARYL UREA-BASED DERIVATIVES, PREPARATION METHOD THEREFOR, AND USE THEREOF” (Hangzhou Yirui Pharmaceutical Technology Co., Ltd, priority 2022, published 2025)", "format_in_all_cases": "in vitro ADME", "key": {"[1]": {"test": "Liver microsomal metabolism in vitro, human LM clearance", "conditions": "human liver microsomes in vitro", "description": "(§1) In addition, the LC-MS/MS method was used to determine the substrate metabolites of 5 major subtypes of human liver microsomal CYP450 enzymes (including CYP1A2, CYP2D6, CYP2C8, CYP2C9, and CYP3A4). The substrate method was used to determine the activity of human liver microsomal CYP450 enzyme. The established incubation system was verified using known inhibitors to investigate the inhibitory effect of the compound on CYP450 enzyme. For the enzyme induction test, a primary cultured human hepatocyte incubation system was used. 3-methylcholanthrene, phenobarbital, and rifampicin were used as positive control inducers of CYP1A2, CYP2B6, and CYP3A4, and phenacetin, bupropion, and testosterone were used as the substrate for CYP1A2, CYP2B6, and CYP3A4. The CYP450 enzyme activity was calculated by measuring the generation rate of 3 specific substrate metabolites in the incubation solution. Meanwhile, the total RNA was extracted from the human hepatocytes after incubation, and the real-time fluorescence quantitative PCR method was used to determine the mRNA expression level of CYP1A2, […], and CYP3A4. The enzyme activity and mRNA transcription level were used as endpoints to investigate the inductive effect of the compound on human liver P450 isoenzymes CYP1A2, […], and CYP3A4. The liver microsomal metabolism parameters in vitro are shown in Table 2B3 taking Compound 8 as an example."}, "CYP1A2": {"target": "T1, CYP1A2 (Homo sapiens, UniProt P05177)", "T1 construct": "The substrate method was used to determine the activity of human liver microsomal CYP450 enzyme; from tissue; host or cells: human liver microsomes", "T1 sequence (P05177 1-516)": "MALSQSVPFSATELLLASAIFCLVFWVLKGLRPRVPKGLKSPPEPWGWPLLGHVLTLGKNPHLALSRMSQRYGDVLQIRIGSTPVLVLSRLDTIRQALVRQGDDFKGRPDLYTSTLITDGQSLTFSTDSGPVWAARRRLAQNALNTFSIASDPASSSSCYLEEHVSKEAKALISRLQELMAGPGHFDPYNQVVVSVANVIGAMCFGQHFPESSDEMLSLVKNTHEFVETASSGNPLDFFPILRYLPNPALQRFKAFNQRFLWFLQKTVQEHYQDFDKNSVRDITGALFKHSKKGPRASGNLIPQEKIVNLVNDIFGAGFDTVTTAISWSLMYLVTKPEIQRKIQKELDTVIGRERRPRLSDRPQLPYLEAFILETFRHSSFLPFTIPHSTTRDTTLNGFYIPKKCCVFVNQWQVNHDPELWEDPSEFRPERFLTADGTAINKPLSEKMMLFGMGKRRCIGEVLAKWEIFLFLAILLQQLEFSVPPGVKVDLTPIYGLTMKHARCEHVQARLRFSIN", "test": "CYP450 inhibition in human liver microsomes (substrate method, LC-MS/MS)", "conditions": "read-out: CYP inhibition IC50 [μM], 1A2", "description": "as §1"}, "CYP2C8": {"target": "T2, CYP2C8 (Homo sapiens, UniProt P10632)", "T2 construct": "The substrate method was used to determine the activity of human liver microsomal CYP450 enzyme; from tissue; host or cells: human liver microsomes", "T2 sequence (P10632 1-490)": "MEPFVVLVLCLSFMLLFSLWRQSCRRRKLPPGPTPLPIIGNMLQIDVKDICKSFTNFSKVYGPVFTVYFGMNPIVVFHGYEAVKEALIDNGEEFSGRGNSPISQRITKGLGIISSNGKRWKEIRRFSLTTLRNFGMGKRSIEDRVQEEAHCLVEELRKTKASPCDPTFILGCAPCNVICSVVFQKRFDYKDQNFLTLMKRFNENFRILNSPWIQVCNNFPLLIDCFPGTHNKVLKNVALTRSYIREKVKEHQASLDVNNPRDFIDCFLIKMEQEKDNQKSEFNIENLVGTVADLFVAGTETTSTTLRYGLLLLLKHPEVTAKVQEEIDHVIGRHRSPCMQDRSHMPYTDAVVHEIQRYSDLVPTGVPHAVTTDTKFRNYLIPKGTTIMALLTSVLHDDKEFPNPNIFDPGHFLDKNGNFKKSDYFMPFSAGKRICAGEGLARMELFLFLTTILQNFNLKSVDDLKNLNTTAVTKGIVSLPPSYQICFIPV", "test": "CYP450 inhibition in human liver microsomes (substrate method, LC-MS/MS)", "conditions": "read-out: CYP inhibition IC50 [μM], 2C8", "description": "as §1"}, "CYP2C9": {"target": "T3, CYP2C9 (Homo sapiens, UniProt P11712)", "T3 construct": "The substrate method was used to determine the activity of human liver microsomal CYP450 enzyme; from tissue; host or cells: human liver microsomes", "T3 sequence (P11712 whole entry)": "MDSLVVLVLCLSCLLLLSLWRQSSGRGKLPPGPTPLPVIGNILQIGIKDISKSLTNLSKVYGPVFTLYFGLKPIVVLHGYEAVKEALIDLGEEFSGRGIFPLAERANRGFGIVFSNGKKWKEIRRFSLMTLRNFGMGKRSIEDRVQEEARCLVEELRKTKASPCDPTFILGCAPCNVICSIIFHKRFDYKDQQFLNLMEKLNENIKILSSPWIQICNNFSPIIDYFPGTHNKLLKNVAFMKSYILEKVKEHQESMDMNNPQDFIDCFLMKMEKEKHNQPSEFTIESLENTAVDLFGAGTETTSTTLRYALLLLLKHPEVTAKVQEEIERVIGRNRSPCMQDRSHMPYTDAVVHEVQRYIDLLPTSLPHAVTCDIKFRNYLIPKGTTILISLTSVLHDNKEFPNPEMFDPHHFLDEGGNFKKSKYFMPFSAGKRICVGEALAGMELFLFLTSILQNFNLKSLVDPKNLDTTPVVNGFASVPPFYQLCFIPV", "test": "CYP450 inhibition in human liver microsomes (substrate method, LC-MS/MS)", "conditions": "read-out: CYP inhibition IC50 [μM], 2C9", "description": "as §1"}, "CYP2D6": {"target": "T4, CYP2D6 (Homo sapiens, UniProt P10635)", "T4 construct": "The substrate method was used to determine the activity of human liver microsomal CYP450 enzyme; from tissue; host or cells: human liver microsomes", "T4 sequence (P10635 whole entry)": "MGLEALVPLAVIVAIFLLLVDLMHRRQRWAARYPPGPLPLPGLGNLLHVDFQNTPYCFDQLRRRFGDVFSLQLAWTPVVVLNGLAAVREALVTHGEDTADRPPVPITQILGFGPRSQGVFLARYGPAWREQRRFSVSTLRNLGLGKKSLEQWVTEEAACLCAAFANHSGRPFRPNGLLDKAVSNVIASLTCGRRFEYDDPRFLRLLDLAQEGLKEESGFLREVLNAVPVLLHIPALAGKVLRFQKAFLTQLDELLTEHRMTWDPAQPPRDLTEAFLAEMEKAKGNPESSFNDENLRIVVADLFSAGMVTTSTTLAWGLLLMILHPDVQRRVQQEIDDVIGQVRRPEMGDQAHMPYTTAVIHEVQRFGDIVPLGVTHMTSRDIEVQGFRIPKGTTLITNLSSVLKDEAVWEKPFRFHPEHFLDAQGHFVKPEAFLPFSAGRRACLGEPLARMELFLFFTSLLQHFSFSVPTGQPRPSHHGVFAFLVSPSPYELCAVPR", "test": "CYP450 inhibition in human liver microsomes (substrate method, LC-MS/MS)", "conditions": "read-out: CYP inhibition IC50 [μM], 2D6", "description": "as §1"}, "CYP3A4": {"target": "T5, CYP3A4 (Homo sapiens, UniProt P08684)", "T5 construct": "from tissue; host or cells: human liver microsomes", "T5 sequence (P08684 whole entry)": "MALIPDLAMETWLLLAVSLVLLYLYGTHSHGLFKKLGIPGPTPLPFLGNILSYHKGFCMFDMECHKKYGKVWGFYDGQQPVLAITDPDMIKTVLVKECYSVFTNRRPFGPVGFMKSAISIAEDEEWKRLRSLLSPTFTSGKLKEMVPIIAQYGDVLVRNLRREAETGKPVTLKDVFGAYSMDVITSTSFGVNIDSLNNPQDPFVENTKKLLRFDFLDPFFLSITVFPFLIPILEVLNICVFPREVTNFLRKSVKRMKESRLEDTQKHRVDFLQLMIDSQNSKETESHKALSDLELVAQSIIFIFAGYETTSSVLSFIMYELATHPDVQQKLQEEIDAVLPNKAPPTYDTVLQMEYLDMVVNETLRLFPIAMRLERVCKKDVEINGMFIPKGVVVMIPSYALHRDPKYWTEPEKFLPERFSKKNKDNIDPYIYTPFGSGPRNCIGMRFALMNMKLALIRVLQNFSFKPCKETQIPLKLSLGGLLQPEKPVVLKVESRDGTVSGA", "test": "CYP450 inhibition in human liver microsomes (substrate method, LC-MS/MS)", "conditions": "read-out: CYP inhibition IC50 [μM], 3A4", "description": "as §1"}}}
{"smiles": "CCOc1ccc(-c2c(F)cc(NC(=O)N3CCC(C(C)(C)C)CC3)cc2-c2nn[nH]n2)cn1", "note": "[Compound 8, 4-(tert-butyl)-N-(4-(6-ethoxypyrid-3-yl)-3-fluoro-5-(2H-tetrazol-5-yl)phenyl)piperidine-1-carboxamide]", "values": [{"measurement": "Human LM clearance", "setting": "[1]", "result": 8.5, "unit": "mL/min/kg"}, {"measurement": "IC50", "setting": "CYP1A2", "result": 50, "unit": "µM"}, {"measurement": "IC50", "setting": "CYP2C8", "result": 50, "unit": "µM"}, {"measurement": "IC50", "setting": "CYP2C9", "result": 50, "unit": "µM"}, {"measurement": "IC50", "setting": "CYP2D6", "result": 50, "unit": "µM"}, {"measurement": "IC50", "setting": "CYP3A4", "result": 50, "unit": "µM"}]}
